Measured values as given in publication PMC11016601, “Exploring the bioaccessibility and intestinal absorption of major classes of pure phenolic compounds using in vitro simulated gastrointestinal digestion” (Heliyon, 2024).
≈ marks a conversion by molar mass, not a printed value. Where “and” joins values, the source holds several entries; their conditions need not be identical. Equal values may be shown once. Read-outs that look alike come from different tables or passages of the source. Marks after values point to notes of the source that are not given here.

How the values were obtained:
[1] = Simulation of intestinal absorption using a dialysis membrane (3 kDa) after in vitro SGD
From the text: HPLC-grade methanol, water, and acetonitrile were supplied by Fisher Scientific Chemicals. The enzymes α-amylase (A1031), pepsin from porcine stomach mucosa (P7012), pancreatin from porcine pancreas (P7545), and bile salts (B863) were purchased from Sigma-Aldrich (Taufkirchen, Germany). The rabbit gastric extract (RGE15) with gastric lipase activity was purchased from Lipolytech (Marseille, France). The ethanol was purchased from Merck (Algés, Portugal). A dialysis membrane with a molecular pore size of 3 kDa was purchased from Spectra/Pro (Spectrum Lab, Breda, Netherlands).
(§1) Mouth digestion of each PC solution (1 mL) was diluted in 0.8 mL of simulated salivary fluid (SSF) and α-amylase (75 U mL-1). Then, the mixture was incubated for 2 min at 37 °C under agitation (200 rpm). In order to start gastric digestion, pH was adjusted to 3.0 using 1 M aqueous HCl and then, a pepsin solution (2000 U mL-1) and simulated gastric fluid (SGF) were added. Subsequently, the mixture was incubated for 2h, at 37 °C and 130 rpm orbital agitation for the stomach digestion. Finally, the small intestine digestion simulation was performed after pH adjustment to 7.0 using 1 M aqueous […] and the addition of pancreatin (100 U mL-1), bile salts solution (10 mM) and simulated intestinal fluid (SIF), during 2 h, at 37 °C with 45 rpm orbital agitation. Natural small intestine absorption was also simulated, by placing the remaining sample in a dialysis membrane, and immersed in distilled water overnight at room temperature.
Furthermore, to determine the intestinal absorption, the aliquots collected inside the dialysis membrane were analyzed. The concentration of these samples (from inside of the membrane) corresponds to the amount of each PC that has not passed through to the outside of the membrane.
(§2) The values of B% and IA% were the average of the three replicates performed, with the calculated standard deviation.

[2] = set-up: method as in PMID 19375897; conditions: cited from earlier work
[3] = In vitro simulated gastrointestinal digestion (SGD, INFOGEST 2.0): concentration and bioaccessibility by UHPLC-DAD-MSn; conditions: for Bioaccessibility (%), initial solution (IS): reference
Description: Preliminary solubility tests in different solvents, namely water, sodium phosphate buffer (26.8 mM, pH 6.1), ethanol, and also a mixture of ethanol with both water and sodium phosphate buffer, were carried out for each PC (data not shown), to prevent erroneous data arising from compounds precipitation. Ethanol percentages used in these preliminary solubility tests were 10, 15, and 20% (v/v).
Each PC solubilized in ethanol:water (15% v/v) was then submitted to an in vitro SGD (INFOGEST 2.0), according to a standardized protocol (Fig. 2). In order to determine whether the interaction between the compounds and enzymes led to an underestimation of their content, each PC solution was submitted to the same digestion procedure, replacing the enzyme solutions with water, which were designed as controls, henceforth this will be the term used. Each sample and control were submitted to three independent in vitro digestion simulations, and after each digestion phase, a sample/control was collected and further analyzed and quantified by UHPLC-DAD-MSn.
as §1
At each sampling point, an aliquot (0.5 mL) from each of the three replicates was collected. The enzymatic activity was stopped immediately by adding pure methanol to each aliquot (1:1, v/v) to promote enzyme precipitation and subsequently centrifuged at 10 000 g and 4 °C for 5 min. The supernatants were filtered with a 0.2 μm nylon filter. To determine the concentration of each sample or control, it was considered the following dilution factor – 1:2, 1:4 and 1:8 for oral, gastric and intestinal digestion phase, respectively.
The bioaccessibility percentage (B%) of each PC was calculated using equation (1):(1) B(%)=[DS]/[IS]×100 where IS is the initial concentration of PCs in ethanol:water (15% v/v) solutions, DS is the concentration of each collected sample or control (without enzymes).
as §2
PCs were analyzed in a UHPLC system equipped with a variable loop Accela autosampler (set at 16 °C), an Accela 600 LC pump, and an Accela 80 Hz photo diode array detector (DAD) (Thermo Fisher Scientific, San Jose, CA, USA). Each sample was prepared in methanol:water (1:1, v/v) and filtered through a 0.2 μm nylon syringe filter. […] The mobile phase was composed of acetonitrile (A) and water:acetonitrile (99:1, v/v) (B), both with 0.1 % of formic acid. The gradient elution was performed as follows: 0–1min: 99% B; 1–17 min: 99-73% B, 17–20 min: 73-0% B, 20–25 min: 0–99% B, followed by re-equilibration of the column at 99% B for 4 min.

Caco-2 cell monolayers = conditions: cited from earlier work; for permeability class from Papp, apical-to-basolateral direction: Caco-2 monolayers
[4] = set-up: method as in doi:10.1016/J.JFF.2016.08.003; conditions: cited from earlier work
[5] = controls (without enzymes), initial solution
[6] = controls (without enzymes), intestinal phase
[7] = controls (without enzymes), oral phase
[8] = samples with enzymes, after gastric digestion pH 3.0
[9] = samples with enzymes, after intestinal digestion pH 7.0
[10] = samples with enzymes, after oral digestion
[11] = samples with enzymes, gastric phase
[12] = samples with enzymes, intestinal phase
[13] = samples with enzymes, oral phase
[14] = samples, initial ethanol:water (15% v/v) solution
[15] = controls (without enzymes), gastric phase

| Structure (SMILES) | Concentration, dialysis phase (D) [1] | Bioaccessibility (%), oral phase (O) ([3]; 2 min) | Concentration, initial solution (IS) [3, 5] [µg/mL] | Bioaccessibility (%), initial solution (IS) [3, 5] | Bioaccessibility (%), intestinal phase (I) [3, 6] | Concentration, intestinal phase (I) [3, 6] [µg/mL] | Concentration, oral phase (O) [3, 7] | Concentration, gastric phase (G) [3, 8] [µg/mL] | Concentration, intestinal phase (I) [3, 9] [µg/mL] | Concentration, oral phase (O) [3, 10] [µg/mL] | Bioaccessibility (%), gastric phase (G) [3, 11] | Bioaccessibility (%), intestinal phase (I) [3, 12] | Bioaccessibility (%), oral phase (O) [3, 13] | Concentration, initial solution (IS) [3, 14] [µg/mL] | Bioaccessibility (%), initial solution (IS) ([3]; samples, initial solution) | permeability class from Papp, apical-to-basolateral direction (Caco-2 cell monolayers) | Concentration, dialysis phase (D) ([1]; pig) [µg/mL] | Bioaccessibility (%), gastric phase (G) [3, 15] | Concentration, gastric phase (G) [3, 15] [µg/mL] | Bioaccessibility (%), oral phase (O) [3, 7] | further results |
| --- | --- | --- | --- | --- | --- | --- | --- | --- | --- | --- | --- | --- | --- | --- | --- | --- | --- | --- | --- | --- | --- |
| O=c1c(O)c(-c2ccc(O)c(O)c2)oc2cc(O)cc(O)c12 [QUE, quercetin] | below the detection limit | 57.23 ± 6.98^ b % | 39.89 | 100% | 17.59 ± 1.70% | 7.02 ± 0.7 | 13.64** μg mL^-1 | 2.74 ± 0.63 | 7.33 ± 0.10 | 22.83 ± 2.78 | 6.87% and 6.87 ± 1.57^ c % | 18.36% and 18.36 ± 0.26^ c % | 57.23% | 39.89 | 100^ a % | low-permeable | – | – | – | – | Intestinal absorption (IA%) [1]: very high; solubility ([2]; pH 1.5): 5.5 µg/mL (≈ 18.2 µM); solubility ([2]; pH 7.5): 28.9 µg/mL (≈ 95.6 µM) |
| O=C(CCc1ccc(O)cc1)c1c(O)cc(O)cc1O [PH, phloretin] | 17.18 ± 2.01 µg/mL | 96.46 ± 10.69^ a % | 288.39 | 100 ^a,b % | 58.91% and 58.91 ± 16.19 ^b % | 169.91 ± 46.69 | 322.24 ± 20.85 µg/mL | 210.15 ± 21.97 | 148.67 ± 32.07 | 278.19 ± 30.82 | 72.87 ± 7.62 ^a,b % | 51.55% and 51.55± 11.12 ^b % | 96.46% | 288.39 | 100^ a % | low-permeable | 26.35 ± 10.09 | 91.73% and 91.73 ± 13.24 ^a,b % | 264.55 ± 38.18 | 111.74% and 111.74 ± 7.23^ a % | – |
| C[C@@H]1O[C@@H](O[C@H]2[C@H](Oc3cc(O)c4c(c3)O[C@H](c3ccc(O)cc3)CC4=O)O[C@H](CO)[C@@H](O)[C@@H]2O)[C@H](O)[C@H](O)[C@H]1O [NARN, naringin] | 4.46 ± 0.44 µg/mL | 133.20 ± 16.03^ a % | 251.44 | 100 ^a % | – | 319.15 ± 27.85 | 322.30 ± 36.59 µg/mL | 365.14 ± 71.37 | 351.21 ± 53.27 | – | 145.2% and 145.22 ± 28.38^ a % | 139.68% and 139.68 ± 21.19^ a % | 133.2% | 251.44 | 100 ^a % | – | 17.29 ± 1.75 | 132.25 ± 6.73^ a % | 332.53 ± 16.91 | 128.18 ± 14.55^ a % | Concentration, oral phase (O) ([3]; 2 min): 334.93 ± 40.32 µg/mL; Papp value of apical to basolateral direction (Caco-2 cell monolayers; Caco-2, ref Tourniaiere et al. (2005)): low |
| C[C@@H]1O[C@@H](OC[C@H]2O[C@@H](Oc3c(-c4ccc(O)c(O)c4)oc4cc(O)cc(O)c4c3=O)[C@H](O)[C@@H](O)[C@@H]2O)[C@H](O)[C@H](O)[C@H]1O [RUT, rutin] | – | – | 326.19 | 100 ^a,b % | 87.44 ± 5.94 ^b % | 285.21 ± 19.38 | 331.30 ± 8.52 µg/mL | 320.45 ± 11.33 | 265.68 ± 13.37 | 281.60 ± 67.69 | 98.24% and 98.24 ± 3.47^ a % | 81.45% and 81.45 ± 4.10^ a % | 86.33% and 86.33 ± 20.75^ a % | 326.19 | 100^ a % | low-permeable | – | 97.20 ± 2.29 ^a,b % | 317.06 ± 7.46 | 101.57 ± 2.61^ a % | Concentration, dialysis phase (D) ([1]; controls (without enzymes), aliquot from inside the dialysis membrane): 15.12 ± 5.54 µg/mL; Intestinal absorption (IA%) ([1]; controls (without enzymes), dialysis membrane): 94.75% and 94.75 ± 1.72%; Concentration, dialysis phase (D) ([1]; samples with enzymes, aliquot from inside the dialysis membrane): 22.24 ± 1.52 µg/mL; Intestinal absorption (IA%) ([1]; samples with enzymes, dialysis membrane): 91.63% and 91.63 ± 0.28%; percentage collected from inside of dialysis membrane ([4]; after in vitro gastrointestinal digestion): 1.65%; IA% ([4]; dialysis membrane): about 98%; formation of metabolites during in vitro SGD (UHPLC-DAD-MSn) ([3]; samples with enzymes): produced a metabolite after intestinal digestion simulation |
